Laboratory results as given in PubChem BioAssay (NCI).
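Compound exposure: 48 hours, 5 concentrations, 96-well plates. TGI: concentration producing complete growth inhibition.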 Where a SMILES comes first, the peptide text is derived from it. [ ]: non-standard residue; d: D form. The star is where a group is joined. X28 = COC1=CC(=O)N(C(=O)[C@@H](O*)C(C)C)[C@H]1Cc1ccccc1; NMeL = CN[C@@H](CC(C)C)C(=O)O; Cbz = O=C(OCc1ccccc1)*

Assays:
Assay in all cases: inhibition of tumour cell growth, NCI panel, 48 h
[1] = tested on: A498 renal
[2] = tested on: BT-549 breast
[3] = tested on: CCRF-CEM leukemia
[4] = tested on: KM12 colon
[5] = tested on: PC-3 prostate
[6] = tested on: SF-268 CNS
[7] = tested on: SK-MEL-2 melanoma
[8] = tested on: SK-OV-3 ovarian
[9] = tested on: U251 CNS
[10] = tested on: UACC-62 melanoma

SMILES	TGI [1]	TGI [2]	TGI [3]	TGI [4]	TGI [5]	TGI [6]	TGI [7]	TGI [8]	TGI [9]	TGI [10]
CCOC(=O)c1[nH]n(-c2ccccc2)c(=O)c1C=NC(=S)C(N)=S	> 100 µM	> 100 µM	> 100 µM	> 100 µM	> 100 µM	> 100 µM	> 100 µM	> 100 µM	> 100 µM	> 100 µM
CCOc1ccc(C(c2c(O)c3ccccc3oc2=O)c2c(O)c3ccccc3oc2=O)cc1	> 100 µM	> 100 µM	> 100 µM	> 100 µM	84.3 µM	> 100 µM	59.1 µM	> 100 µM	> 100 µM	> 100 µM
COC1=CC(=O)N(C(=O)[C@@H](OC(=O)[C@@H]2CCCN2C(=O)[C@@H]2CCCN2C(=O)[C@H](CC(C)C)N(C)C(=O)[C@@H](NC(=O)[C@@H](NC(=O)OCc2ccccc2)C(C)C)C(C)C)C(C)C)[C@H]1Cc1ccccc1 (Cbz-VV[NMeL]PP-X28)	56.1 µM	> 100 µM	> 100 µM	> 100 µM	76.8 µM	> 100 µM	28.6 µM	> 100 µM	> 100 µM	> 100 µM
S=C1NC2=C(COC/C2=C\c2ccccc2Cl)C(c2ccccc2Cl)N1 (stereo not given)	> 100 µM	> 100 µM	45.1 µM	28.6 µM	> 100 µM	> 100 µM	67.1 µM	> 100 µM	> 100 µM	> 100 µM
CCN(CC)CCNC(=O)c1cc2cc(NC(=O)c3cc4cc(NC(=O)c5cc6cc([N+](=O)[O-])ccc6[nH]5)ccc4[nH]3)ccc2[nH]1	> 100 µM	> 100 µM	67.3 µM	> 100 µM	> 100 µM	> 100 µM	> 100 µM	> 100 µM	> 100 µM	> 100 µM
